Reference: US20060046975A1, “Method for preparing a medical solution for the manufacture of a medicament for peritoneal dialysis” (priority 2002, published 2006)

Columns and labels:
cultured cells = assay: in vitro inhibition of cell growth (ICG) in cultured cells by heat sterilised NAG solutions; format: cell-based
Excerpt: Experiments in which measurements of the percentage of inhibition of cell growth (ICG) and fluorescence have been made at varying NAG concentrations, and also at varying pH values, during terminal heat sterilisation are illustrated in FIGS. 1-4. The results of the experiments imply that the concentration of the amino sugar/sugars should be optimised.
(§1) A simple, reliable and known way to study the cytotoxicity of substances or of medical fluids is to test proliferation as in vitro inhibition of cell growth (ICG) in cultured cells. Another method to get a rough estimation of the amount of amino sugars that is rearranged is measurement of the fluorescence.
More precisely, from the graph in FIG. 1 it can be seen that the inhibition of cell growth reaches a maximum with sterilisation of a solution containing about 5% NAG. With increasing NAG concentration the inhibition of cell growth decreases.
The bar diagram in FIG. 2 illustrates the effect of increased NAG concentration at different pH values during terminal heat sterilisation.

peritoneum = details: cited from earlier work
[1] = analysis of degradation products (3-DG, 3,4-DGE) in heat sterilised solutions by HPLC; format: physicochemical; details: heat sterilised NAG solutions
Excerpt: This cytotoxicity depends on the formation of toxic degradation products from said amino sugars. […] This fact has not been known previously and forms the basis for the present invention. It should be noted that the decomposition pattern for an amino sugar solution during heat sterilisation follows specific Maillard reactions giving several different toxic decomposition products. The decomposition pattern differs for e.g. a glucose solution during heat sterilisation, wherein different decomposition products are formed. This difference is illustrated in FIGS. 5a-5d, showing chromatograms when analysing 3-DG and 3,4-DGE in a NAG solution and in a glucose solution, respectively. The difference in degradation is likely due to that the NAG molecules contains groups that allows the Maillard reaction to take place and therefore create a large number of degradation products not seen in a glucose solution.

[2] = tested on: human peritoneal mesothelial cells and fibroblasts; details: Breborowicz et al 1998; cited from earlier work
[3] = pH change of the solution during sterilisation; format: physicochemical
Excerpt: NAG and other amino sugars have a major difference from glucose and glucose-like compounds by having one amino group and possibly an acetyl group coupled to the glucose ring.

[4] = fluorescence of terminally heat sterilised NAG containing solution; format: physicochemical; details: FIG. 3; excitation at 350 nm, emission of 430 nm
Excerpt: as §1
The lowest fluorescence is seen at around pH 4.

Molecule | inhibition of cell growth with increasing NAG concentration (cultured cells; FIG. 1, above the maximum at about 5% NAG) | NAG concentration during sterilisation at which inhibition of cell growth reaches a maximum (cultured cells; FIG. 1, terminal heat sterilisation) | inhibition of cell growth, effect of NAG concentration during sterilisation (cultured cells; FIG. 2, 30% versus 1.5% NAG, for all three pH values) | percentage inhibition of cell growth, effect of pH during sterilisation (cultured cells; FIG. 2, pH 3.0 versus pH 5.5 and 7.2) | optimal pH of sterilisation from an in vitro toxicological point of view (cultured cells; NAG containing solution, higher or lower pH gives higher percentage of inhibited growth) | cytotoxicity after heat sterilisation (cultured cells; amino sugars, e.g. NAG, in conventional medical solutions) | effect on the peritoneum of dialysis solution supplemented with N-acetylglucosamine (peritoneum; Wu et al 1998, chronic peritoneal dialysis) | known glucose degradation products found [1] | production of hyaluronan and sulphated glycosaminoglycans [2] | change of pH of the solution during sterilisation [3] | pH at which fluorescence is lowest [4] | function of the peritoneum as a dialysis membrane (peritoneum; Wieczorowska et al 1995, fluid supplemented with exogenous hyaluronan)
CC(=O)N[C@H]1C(O)O[C@H](CO)[C@@H](O)[C@@H]1O (stereo partly drawn) [NAG, N-acetylglucosamine] | decreases | about 5% | lower after a terminal heat sterilisation at a NAG concentration of 30% than at a NAG concentration of 1.5% | lower after terminal heat sterilisation at a pH of 3.0 than at a pH of 5.5 and 7.2 | 2.5-3.5 | increased cytotoxicity | causes accumulation of glucosaminoglycans in the peritoneal interstitium | none of the known glucose degradation products has been found | rapidly stimulates | increases during sterilisation | ~4 | –
hyaluronan [reference compound] | – | – | – | – | – | – | – | – | – | – | – | better preserved
